From patent publication US20220089592A1, “IMIDAZO[1,2-A]PYRIDINYL DERIVATIVES AS IRAK4 INHIBITORS” (priority 2019, published 2022)

Molecular target: T1, IRAK4 (Homo sapiens, UniProt Q9NWZ3)
T1 sequence (Q9NWZ3 1-460): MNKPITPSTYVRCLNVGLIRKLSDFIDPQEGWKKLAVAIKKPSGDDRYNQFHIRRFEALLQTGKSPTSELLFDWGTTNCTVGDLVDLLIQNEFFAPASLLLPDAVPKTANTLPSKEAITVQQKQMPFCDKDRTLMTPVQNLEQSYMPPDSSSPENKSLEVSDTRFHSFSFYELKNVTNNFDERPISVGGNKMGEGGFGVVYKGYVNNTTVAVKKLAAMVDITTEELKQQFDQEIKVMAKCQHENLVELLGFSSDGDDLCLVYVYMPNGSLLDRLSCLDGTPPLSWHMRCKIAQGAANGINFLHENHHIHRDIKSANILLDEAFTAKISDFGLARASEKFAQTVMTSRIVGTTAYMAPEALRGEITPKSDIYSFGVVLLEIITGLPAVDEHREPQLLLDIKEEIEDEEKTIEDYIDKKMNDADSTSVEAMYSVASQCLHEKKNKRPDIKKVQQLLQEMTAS
Assay: 2-hour 10 μM ATP Biochemical Assay (MesoScale Detection format; IRAK4 phosphorylation of biotin labeled IRAK1 activation loop peptide)
Details: IRAK4 MSD BIOCHEMICAL (10 μM ATP) IC50 (μM), 1 nM IRAK4, 2 hours
Description: The 2-hour 10 μM ATP Biochemical Assay employs a MesoScale Detection (MSD) format.
The activity is quenched with 11 μl of 70 mM EDTA, pH 8.
To detect the phosphorylated biotinylated peptide substrate, 30 μl of the quenched reaction mixture is added to equivalent wells of a 384 well streptavidin coated MesoScale plate (Meso Scale Discovery #L21SA-1). After a 1 hour incubation of the plate for 1 hour at room temperature with gentle mixing, the plate wells are washed 3 times with 50 mM Tris, pH 7.5, 150 mM NaCl, 0.02% Tween-20.
A 25 μl volume of 1:500 anti-P-Threonine Rabbit polyclonal Antibody plus 1:500 Goat-anti-Rabbit Sulfo Tag Antibody (Meso Scale Discovery R32AB-1) in 50 mM Tris, pH 7.5, 150 mM NaCl, 0.02% Tween-20 plus 2% BSA is then added to each well. After a 1-hour incubation of the plate for 1 hour at room temperature with gentle mixing, the plate wells are washed, 3 times with 50 mM Tris, pH 7.5, 150 mM NaCl, 0.02% Tween-20. A 40 μl volume of 2×MSD Read Buffer (Meso Scale Discovery R92TC-1) is added to each well, and the plate is read immediately in an MSD Plate Reader (Meso Scale Discovery).

**Q.** `COc1cc(NC(=O)c2cccc(C(F)F)n2)cn2cc(C3CC3(F)F)nc12` (single isomer, unassigned) [Example 514, N-(2-(2,2-difluorocyclopropyl)-8-methoxyimidazo[1,2-a]pyridin-6-yl)-6-(difluoromethyl)picolinamide] was tested. Which IC50 did it give?
**A.** 0.016 µM

**Q.** How did the IC50 turn out when `COc1nc(NC(=O)c2ccn(CC(F)F)n2)cn2cc(C3CCOCC3)nc12` [Example 452, 1-(2,2-difluoroethyl)-N-(8-methoxy-2-(tetrahydro-2H-pyran-4-yl)imidazo[1,2-a]pyrazin-6-yl)-1H-pyrazole-3-carboxamide] was run?
**A.** 0.031 µM

**Q.** With `CCOc1cc2nc(CC)cn2cc1NC(=O)c1ccc(F)cc1F` [Example 40, N-(7-ethoxy-2-ethylimidazo[1,2-a]pyridin-6-yl)-2,4-difluorobenzamide] as the molecule, how does the IC50 read?
**A.** 0.34 µM

**Q.** How did the IC50 turn out when `CCOc1cc2nc(C3CC3)c(F)n2cc1NC(=O)c1cccc(C(F)F)n1` [Example 29, N-(2-cyclopropyl-7-ethoxy-3-fluoroimidazo[1,2-a]pyridin-6-yl)-6-(difluoromethyl)picolinamide] was run?
**A.** 0.023 µM

**Q.** For `CCOc1cc2nc(C34CC(C(C)(C)O)(C3)C4)cn2cc1NC(=O)c1cccc(C(F)F)n1` [Example 129, 6-(difluoromethyl)-N-(7-ethoxy-2-(3-(2-hydroxypropan-2-yl)bicyclo[1.1.1]pentan-1-yl)imidazo[1,2-a]pyridin-6-yl)picolinamide], which IC50 is on record?
**A.** 0.001 µM

**Q.** `CCOc1cc2nc(C3CCOCC3)cn2cc1NC(=O)c1ccccc1F` [Example 212, N-(7-ethoxy-2-(tetrahydro-2H-pyran-4-yl)imidazo[1,2-a]pyridin-6-yl)-2-fluorobenzamide] was tested. Which IC50 did it give?
**A.** 0.022 µM

**Q.** `O=C(Nc1cc(O)c2nc(C3CCOCC3)cn2c1)c1cccc(C(F)(F)F)n1` [Example 104, N-(8-hydroxy-2-(tetrahydro-2H-pyran-4-yl)imidazo[1,2-a]pyridin-6-yl)-6-(trifluoromethyl)picolinamide] was tested. Which IC50 did it give?
**A.** 0.13 µM

**Q.** With `O=C(Nc1cn2cc(C3CC3)nc2cc1O)c1cccc(C(F)F)n1` [Example 10, N-(2-cyclopropyl-7-hydroxyimidazo[1,2-a]pyridin-6-yl)-6-(difluoromethyl)picolinamide] as the molecule, how does the IC50 read?
**A.** 0.059 µM

**Q.** Which IC50 does the source give for `COc1cc(NC(=O)c2cccc(C(F)F)n2)cn2cc(C3CC3(F)F)nc12` (single isomer, unassigned) [Example 513, N-(2-(2,2-difluorocyclopropyl)-8-methoxyimidazo[1,2-a]pyridin-6-yl)-6-(difluoromethyl)picolinamide] here?
**A.** 0.015 µM

**Q.** Which IC50 does the source give for `COc1nc(NC(=O)c2cccc(C(F)F)n2)cn2cc(C3CCOCC3)nc12` [Example 450, 6-(difluoromethyl)-N-(8-methoxy-2-(tetrahydro-2H-pyran-4-yl)imidazo[1,2-a]pyrazin-6-yl)picolinamide] here?
**A.** 0.003 µM

**Q.** For `CCOc1cc2nc(CC)cn2cc1NC(=O)c1ccc(F)c(F)c1` [Example 35, N-(7-ethoxy-2-ethylimidazo[1,2-a]pyridin-6-yl)-3,4-difluorobenzamide], which IC50 is on record?
**A.** 2.5 µM

**Q.** `CCOc1cc2nc(CC)cn2cc1NC(=O)c1cc2n(n1)CCC2` [Example 38, N-(7-ethoxy-2-ethylimidazo[1,2-a]pyridin-6-yl)-5,6-dihydro-4H-pyrrolo[1,2-b]pyrazole-2-carboxamide] was tested. Which IC50 did it give?
**A.** 2.6 µM

**Q.** For `CCOc1cc2nc(C3CN(CC(F)F)C3)cn2cc1NC(=O)c1ccn(CC(F)F)n1` [Example 291, 1-(2,2-difluoroethyl)-N-(2-(1-(2,2-difluoroethyl)azetidin-3-yl)-7-ethoxyimidazo[1,2-a]pyridin-6-yl)-1H-pyrazole-3-carboxamide], which IC50 is on record?
**A.** 0.003 µM

**Q.** For `CCOc1cc2nc(C3CC3)cn2cc1NC(=O)c1cccnc1OCC(F)(F)F` [Example 71, N-(2-cyclopropyl-7-ethoxyimidazo[1,2-a]pyridin-6-yl)-2-(2,2,2-trifluoroethoxy)nicotinamide], which IC50 is on record?
**A.** 0.66 µM

**Q.** `C[C@H](COc1cc2nc(C3CC3)cn2cc1NC(=O)c1cccc(C(F)F)n1)n1ccccc1=O` (single isomer, unassigned) [Example 7] was tested. Which IC50 did it give?
**A.** 0.28 µM

**Q.** How did the IC50 turn out when `CCOc1cc2nc(C3CC3)cn2cc1NC(=O)c1cncc(C(F)(F)F)n1` [Example 120, N-(2-cyclopropyl-7-ethoxyimidazo[1,2-a]pyridin-6-yl)-6-(trifluoromethyl)pyrazine-2-carboxamide] was run?
**A.** 0.028 µM

**Q.** How did the IC50 turn out when `CCOc1cc2nc(C3CCN(C)C(=O)C3)cn2cc1NC(=O)c1cccc(C(F)F)n1` (racemic) [Example 75, 6-(difluoromethyl)-N-(7-ethoxy-2-(1-methyl-2-oxopiperidin-4-yl)imidazo[1,2-a]pyridin-6-yl)picolinamide] was run?
**A.** 0.001 µM

**Q.** `CCOc1cc2nc(CC)cn2cc1NC(=O)c1ccc2c(c1)COC2` [Example 37, N-(7-ethoxy-2-ethylimidazo[1,2-a]pyridin-6-yl)-1,3-dihydroisobenzofuran-5-carboxamide] was tested. Which IC50 did it give?
**A.** 1.7 µM

**Q.** How did the IC50 turn out when `CCOc1cc2nc(C(=O)N3CCOCC3)cn2cc1NC(=O)c1cccc(C(F)F)n1` [Example 126, 6-(difluoromethyl)-N-(7-ethoxy-2-(morpholine-4-carbonyl)imidazo[1,2-a]pyridin-6-yl)picolinamide] was run?
**A.** 0.35 µM

**Q.** `CCOc1cc2nc(CC)cn2cc1NC(=O)c1ccc2c(c1)OCC2` [Example 42, N-(7-ethoxy-2-ethylimidazo[1,2-a]pyridin-6-yl)-2,3-dihydrobenzofuran-6-carboxamide] was tested. Which IC50 did it give?
**A.** 1.3 µM

**Q.** `CCOc1cc2nc(CC)cn2cc1NC(=O)c1nc(C(F)(F)F)ccc1F` [Example 36, N-(7-ethoxy-2-ethylimidazo[1,2-a]pyridin-6-yl)-3-fluoro-6-(trifluoromethyl)picolinamide] was tested. Which IC50 did it give?
**A.** 0.26 µM

**Q.** For `CCOc1cc2nc(C3CCOCC3)cn2cc1NC(=O)c1ccn(C(C)(C)C)n1` [Example 207, 1-(tert-butyl)-N-(7-ethoxy-2-(tetrahydro-2H-pyran-4-yl)imidazo[1,2-a]pyridin-6-yl)-1H-pyrazole-3-carboxamide], which IC50 is on record?
**A.** 0.021 µM

**Q.** `CCOc1cc2nc(C3CCOCC3)cn2cc1NC(=O)c1cccc(C)c1` [Example 229, N-(7-ethoxy-2-(tetrahydro-2H-pyran-4-yl)imidazo[1,2-a]pyridin-6-yl)-3-methylbenzamide] was tested. Which IC50 did it give?
**A.** 0.025 µM

**Q.** How did the IC50 turn out when `O=C(Nc1cc(OCc2ccccc2)c2nc(C3CCOCC3)cn2c1)c1cccc(C(F)(F)F)n1` [Example 103, N-(8-(benzyloxy)-2-(tetrahydro-2H-pyran-4-yl)imidazo[1,2-a]pyridin-6-yl)-6-(trifluoromethyl)picolinamide] was run?
**A.** 0.023 µM

**Q.** How did the IC50 turn out when `COc1cc2nc(C3CC3)cn2cc1NC(=O)c1cccn(C)c1=O` [Example 52, N-(2-cyclopropyl-7-methoxyimidazo[1,2-a]pyridin-6-yl)-1-methyl-2-oxo-1,2-dihydropyridine-3-carboxamide] was run?
**A.** 0.033 µM

**Q.** With `CCOc1cc2nc(CC3CCOC3)cn2cc1NC(=O)c1nc(C)no1` (stereo not shown) [Example 158, N-(7-ethoxy-2-((tetrahydrofuran-3-yl)methyl)imidazo[1,2-a]pyridin-6-yl)-3-methyl-1,2,4-oxadiazole-5-carboxamide] as the molecule, how does the IC50 read?
**A.** 2.9 µM

**Q.** Which IC50 does the source give for `COc1cc(NC(=O)c2csc(C)n2)cn2cc(C3CCOCC3)nc12` [Example 305, N-(8-methoxy-2-(tetrahydro-2H-pyran-4-yl)imidazo[1,2-a]pyridin-6-yl)-2-methylthiazole-4-carboxamide] here?
**A.** 0.026 µM

**Q.** Which IC50 does the source give for `O=C(Nc1cc(C2=CCOCC2)c2nc(C3CCOCC3)cn2c1)c1cccc(C(F)(F)F)n1` [Example 107, N-(8-(3,6-dihydro-2H-pyran-4-yl)-2-(tetrahydro-2H-pyran-4-yl)imidazo[1,2-a]pyridin-6-yl)-6-(trifluoromethyl)picolinamide] here?
**A.** 0.084 µM
